The text below walks through data of ChEMBL document CHEMBL1147163 (Bioorg Med Chem, 2007).

A short description of data set [1]: Inhibition of rat microsomal VKER.
A short description of data set [2]: Dissociation constant, pKa of the compound. It counts as physicochemical.

Broadly, the IC50 is the concentration that gives 50% inhibition. A higher IC50 goes with weaker potency in that assay. The molecule `CC(=O)CC(c1ccccc1)c1c(O)oc2cc(O)ccc2c1=O` (stereo unspecified) returned an IC50 in data set [1] of 250000 nM. Same read-out and setting: for `CC(=O)CC(c1ccccc1)c1c(O)oc2ccc(O)cc2c1=O` (stereo unspecified) the value was 12800 nM. Consider `CC(=O)CC(c1ccccc1)c1c(SC[C@@H](NC(C)=O)C(=O)O)c2ccccc2oc1=O` (stereo partly specified), for which the IC50 in data set [1] is > 500000 nM. Still for that read-out and setting: for `CC(=O)CC(c1ccccc1)c1c(Cl)c2ccccc2oc1=O` (stereo unspecified) the value was > 500000 nM. The same measure, in the same setting: for `CC(=O)CC(C1=C(O)c2ccccc2C1=O)c1ccccc1` (stereo unspecified) the value was 3000 nM; for `CC(C)=CCC/C(C)=C/CC/C(C)=C/CC1=C(O)c2ccccc2C(=O)C1=O`, 130 nM; for `CCCCCCCC/C=C\CCCCCCCCc1c(O)c2ccccc2oc1=O`, 900 nM. In the case of `CC(C)=CCC/C(C)=C/CC/C(C)=C/Cc1c(O)c2ccccc2oc1=O`, in data set [1], the IC50 came to 98 nM. On to `COc1c(C(CC(C)=O)c2ccccc2)c(=O)oc2ccccc12` (stereo unspecified), for which, in data set [1], the IC50 was > 500000 nM. For the molecule `CC(=O)CC(c1ccccc1)c1cc2ccccc2oc1=O` (stereo unspecified), the IC50 in data set [1] was > 500000 nM.

Usually pKa stands for the pH at which an ionisable group is half protonated. In data set [1], `CC(=O)CC(c1ccccc1)c1c(S)c2ccccc2oc1=O` (stereo unspecified) gave a half-maximal inhibitory concentration (IC50) of 18300 nM. This molecule yielded a pKa in data set [2] of 6.6. Regarding `CC(=O)CC(c1ccc([N+](=O)[O-])cc1)c1c(O)c2ccccc2oc1=O` (stereo unspecified) [ACENOCOUMAROL], the IC50 in data set [1] turned out to be 770 nM. The same measure, in the same setting: to `O=c1oc2ccccc2c(O)c1C1CC(c2ccc(-c3ccc(Br)cc3)cc2)Cc2ccccc21` (stereo unspecified) [BRODIFACOUM] belongs 150 nM; to `O=c1oc2ccccc2c(O)c1Cc1c(O)c2ccccc2oc1=O` [DICUMAROL], 3100 nM; to `CC(C)=CCC/C(C)=C/CC/C(C)=C/Cc1c(O)c2cc(C)c(C)cc2oc1=O` [DIMETHYLFERULENOL], 340 nM. `CC(C)=CCc1c(O)c2ccccc2oc1=O` [ISOPRENYLCOUMARIN] registered a 50% inhibitory concentration (IC50) in data set [1] of 79000 nM. The same measure, in the same setting: for `CCC(c1ccccc1)c1c(O)c2ccccc2oc1=O` (stereo unspecified) [PHENPROCOUMON] the value was 1800 nM; for `CC(O)CC(c1ccccc1)c1c(O)c2ccccc2oc1=O` (stereo unspecified) [WARFARIN ALCOHOL], 12500 nM. With `CC(=O)CC(c1ccccc1)c1c(OS(=O)(=O)C(F)(F)F)c2ccc(O)cc2oc1=O` (stereo unspecified) [WARFARIN TRIFLATE], the IC50 in data set [1] is > 500000 nM. `CC(=O)CC(c1ccccc1)c1c(O)c2ccccc2oc1=O` (stereo unspecified) [WARFARIN] yielded an IC50 in data set [1] of 2200 nM.
